Laboratory results reported in ChEMBL document CHEMBL1201862, “PubChem BioAssay data set” (2004).
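Tested at 5 concentrations; 48 h exposure; 96-well plates; endpoints linearly interpolated, else capped at highest concentration. The concentration for 50% growth inhibition is given as GI50.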 The source made the active and inactive calls. Rule as the data show it: active = GI50 up to about 1.1 µM and inactive = higher.

Assays:
Experiment in all cases: NCI anticancer screen, dose series, 48 h
[1] = tested on: NCI-H460
[2] = tested on: HOP-62
[3] = tested on: HCT-15
[4] = tested on: RXF 393
[5] = tested on: HCC 2998
[6] = tested on: TK-10
[7] = tested on: SR
[8] = tested on: SK-OV-3
[9] = tested on: K562
[10] = tested on: HOP-92
[11] = tested on: ACHN
[12] = tested on: M19-MEL
[13] = tested on: EKVX
[14] = tested on: 786-0
[15] = tested on: SF-268
[16] = tested on: SW-620
[17] = tested on: PC-3
[18] = tested on: T47D
[19] = tested on: Hs-578T
[20] = tested on: BT-549

Structure (SMILES): COc1c(C)c2c(c3c1c(=O)c1ccccc1n3C)C=CC(C)(C)O2
- GI50 [1]: 18.7 µM (inactive)
- GI50 [2]: 27.2 µM (inactive)
- GI50 [3]: 18.2 µM
- GI50 [4]: 51.5 µM (inactive)
- GI50 [5]: 28.4 µM (inactive)
- GI50 [6]: 48.3 µM (inactive)
- GI50 [7]: 12.5 µM (inactive)
- GI50 [8]: 12.7 µM (inactive)
- GI50 [9]: 13.4 µM (inactive)
- GI50 [10]: 31.9 µM (inactive)
- GI50 [11]: 20.6 µM (inactive)
- GI50 [12]: 31.7 µM (inactive)
- GI50 [13]: 47.1 µM (inactive)
- GI50 [14]: 23.4 µM (inactive)
- GI50 [15]: 26.4 µM (inactive)
- GI50 [16]: 38 µM (inactive)

Structure (SMILES): O=C1OCC2C1C1c3ccccc3C(O)c3ccccc3C21 (configuration not stated)
- GI50 [1]: > 100 µM (inactive)
- GI50 [2]: > 100 µM (inactive)
- GI50 [3]: > 100 µM
- GI50 [4]: > 100 µM (inactive)
- GI50 [5]: > 100 µM (inactive)
- GI50 [6]: > 100 µM (inactive)
- GI50 [7]: > 100 µM (inactive)
- GI50 [8]: > 100 µM (inactive)
- GI50 [9]: > 100 µM (inactive)
- GI50 [10]: > 100 µM (inactive)
- GI50 [11]: > 100 µM (inactive)
- GI50 [12]: > 100 µM (inactive)
- GI50 [13]: > 100 µM (inactive)
- GI50 [14]: > 100 µM (inactive)
- GI50 [15]: > 100 µM (inactive)
- GI50 [16]: > 100 µM (inactive)

Structure (SMILES): Cc1cccc(NC(=O)c2cccc([N+](=O)[O-])c2O)c1C
- GI50 [1]: 20.6 µM (inactive)
- GI50 [2]: 17.8 µM (inactive)
- GI50 [17]: 20.2 µM (inactive)
- GI50 [18]: 24.9 µM (inactive)
- GI50 [3]: 31.4 µM
- GI50 [4]: 12.6 µM (inactive)
- GI50 [19]: 43.6 µM (inactive)
- GI50 [5]: 28.4 µM (inactive)
- GI50 [6]: 53.6 µM (inactive)
- GI50 [7]: 20.1 µM (inactive)
- GI50 [8]: 28.4 µM (inactive)
- GI50 [9]: 12.1 µM (inactive)
- GI50 [10]: 16.4 µM (inactive)
- GI50 [11]: 28.6 µM (inactive)
- GI50 [12]: 21.9 µM (inactive)
- GI50 [20]: 30.2 µM (inactive)
- GI50 [13]: 26.7 µM (inactive)
- GI50 [14]: 37.7 µM (inactive)
- GI50 [15]: 33.2 µM (inactive)
- GI50 [16]: 37.9 µM (inactive)
